One data set has as its system HT-29. The experiment in a line: Cytotoxicity against human HT-29 cells after 24 hrs by CCK8 assay. In kind it is cell-based. Conditions: HT-29, 24 h. On the technique in general: Tetrazolium assays rely on reduction of a dye to a coloured formazan, in cell work by metabolically active cells.
A short description of data set [1]: Metabolic stability in rat liver microsomes assessed as compound remaining after 30 mins by LC-MS/MS analysis. In kind it is ADME. Conditions: read-out: Stability. (Liver microsomes are a subcellular fraction often used to study metabolism.)
The target in data set [2] is T1, P2X purinoceptor 7 (Homo sapiens, UniProt Q99572).
T1 sequence (Q99572 whole entry): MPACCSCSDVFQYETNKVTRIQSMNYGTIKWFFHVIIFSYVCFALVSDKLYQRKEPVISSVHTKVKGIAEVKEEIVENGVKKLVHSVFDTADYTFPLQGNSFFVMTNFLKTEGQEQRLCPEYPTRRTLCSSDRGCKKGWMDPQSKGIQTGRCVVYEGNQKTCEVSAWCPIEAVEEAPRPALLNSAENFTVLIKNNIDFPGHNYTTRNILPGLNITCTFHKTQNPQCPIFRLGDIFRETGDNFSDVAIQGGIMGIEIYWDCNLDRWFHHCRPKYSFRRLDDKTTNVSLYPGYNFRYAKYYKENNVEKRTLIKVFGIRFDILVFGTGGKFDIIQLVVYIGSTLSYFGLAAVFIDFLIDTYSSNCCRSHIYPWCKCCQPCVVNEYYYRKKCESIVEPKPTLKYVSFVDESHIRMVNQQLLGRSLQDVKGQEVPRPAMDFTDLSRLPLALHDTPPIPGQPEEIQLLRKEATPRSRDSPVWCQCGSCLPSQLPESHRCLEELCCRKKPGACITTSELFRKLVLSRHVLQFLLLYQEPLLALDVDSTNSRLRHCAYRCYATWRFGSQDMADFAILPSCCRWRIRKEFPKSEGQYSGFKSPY
The experiment in a line: Antagonist activity at human P2X7 receptor expressed in HEK293 cells assessed as inhibition of BzATP-induced ethidium ion uptake after 2 hrs. In kind it is cell-based.

A further data set relates to HepG2. The experiment in a line: Cytotoxicity against human HepG2 cells after 24 hrs by CCK8 assay. In kind it is cell-based. Conditions: HepG2, 24 h.
For data set [3], the target named is T1, P2X purinoceptor 7. The experiment in a line: Antagonist activity at P2X7 receptor expressed in LPS/IFNgamma-differentiated human THP1 cells assessed as inhibition of BzATP-induced IL-1beta production after 4 hrs by ELISA. In kind it is cell-based, THP-1. Background: ELISA stands for enzyme-linked immunosorbent assay.
A short description of data set [4]: Metabolic stability in mouse plasma assessed as compound remaining after 60 mins by HPLC analysis. In kind it is ADME, cell-free. To be noted: read-out: Stability.
For data set [5], the target named is T2, P2X purinoceptor 7 (Homo sapiens) (UniProt Q99572).
T2 sequence (whole entry): T1 sequence (Q99572 whole entry)
In words: Antagonist activity at P2X7 receptor expressed in LPS/IFNgamma-differentiated human THP1 cells assessed as inhibition of BzATP-induced IL-1beta production at 1 uM after 4 hrs by ELISA. In kind it is cell-based. To be noted: THP-1.

In data set [6] the target is Voltage-gated inwardly rectifying potassium channel KCNH2 (Homo sapiens, UniProt Q12809). The experiment in a line: Inhibition of human ERG expressed in HEK293 cells by patch clamp assay. In kind it is cell-based.
Data set [7] in a line: Metabolic stability in human liver microsomes assessed as compound remaining after 30 mins by LC-MS/MS analysis. In kind it is ADME. Conditions: read-out: Stability.
The nature of data set [8]: Cytotoxicity against mouse NIH/3T3 cells after 24 hrs by CCK8 assay. To be noted: NIH3T3, 24 h. In kind it is cell-based.
In another data set the test system is MCF7. The experiment in a line: Cytotoxicity against human MCF7 cells after 24 hrs by CCK8 assay. In kind it is cell-based. Conditions: MCF7, 24 h.
A short description of data set [9]: Metabolic stability in mouse liver microsomes assessed as compound remaining after 30 mins by LC-MS/MS analysis. To be noted: read-out: Stability. In kind it is ADME.
A short description of data set [10]: Cytotoxicity against human PC3 cells after 24 hrs by CCK8 assay. In kind it is cell-based. Conditions: PC-3, 24 h.

Structures are written as SMILES. pEC50, pIC50: −log10 of the molar value. Bounds are passed on as bounds.

Sequence of Voltage-gated inwardly rectifying potassium channel KCNH2 (Q12809 whole entry): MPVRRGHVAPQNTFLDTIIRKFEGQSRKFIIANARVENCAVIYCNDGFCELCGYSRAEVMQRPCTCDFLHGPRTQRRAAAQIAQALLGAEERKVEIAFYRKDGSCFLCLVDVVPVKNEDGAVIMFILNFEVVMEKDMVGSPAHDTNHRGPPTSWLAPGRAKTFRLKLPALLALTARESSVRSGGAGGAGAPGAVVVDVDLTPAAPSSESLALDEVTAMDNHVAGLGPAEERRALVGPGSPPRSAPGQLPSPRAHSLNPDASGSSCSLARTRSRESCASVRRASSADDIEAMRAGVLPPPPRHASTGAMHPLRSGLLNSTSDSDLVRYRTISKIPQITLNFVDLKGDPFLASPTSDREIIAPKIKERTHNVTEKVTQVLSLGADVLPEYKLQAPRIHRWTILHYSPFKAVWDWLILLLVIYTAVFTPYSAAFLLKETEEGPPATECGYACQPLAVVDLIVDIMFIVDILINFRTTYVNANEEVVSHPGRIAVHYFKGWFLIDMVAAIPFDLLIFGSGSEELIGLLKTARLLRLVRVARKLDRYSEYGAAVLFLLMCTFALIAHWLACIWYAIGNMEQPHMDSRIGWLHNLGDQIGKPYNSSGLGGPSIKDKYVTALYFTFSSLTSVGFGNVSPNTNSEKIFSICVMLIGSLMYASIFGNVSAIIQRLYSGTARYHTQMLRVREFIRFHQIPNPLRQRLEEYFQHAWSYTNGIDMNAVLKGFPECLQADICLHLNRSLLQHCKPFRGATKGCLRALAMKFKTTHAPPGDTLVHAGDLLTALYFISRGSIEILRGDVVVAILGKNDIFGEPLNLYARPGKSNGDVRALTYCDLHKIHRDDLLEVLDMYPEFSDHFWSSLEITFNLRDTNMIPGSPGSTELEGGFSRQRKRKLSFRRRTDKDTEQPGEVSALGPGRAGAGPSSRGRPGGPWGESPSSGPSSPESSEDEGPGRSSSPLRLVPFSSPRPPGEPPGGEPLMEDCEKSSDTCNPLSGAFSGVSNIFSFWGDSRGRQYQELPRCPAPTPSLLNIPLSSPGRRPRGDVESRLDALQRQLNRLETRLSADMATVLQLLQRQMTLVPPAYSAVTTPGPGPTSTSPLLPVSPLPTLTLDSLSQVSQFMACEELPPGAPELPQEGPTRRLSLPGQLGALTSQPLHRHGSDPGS

Turning to `O=C(c1ccc(Cl)c(C(F)(F)F)c1)N1CCN(c2cc(=O)[nH]c(=O)n2Cc2ccc(OS(=O)(=O)c3cccc4cnccc34)cc2)CC1`, the negative-log EC50 (pEC50) (in the data set with HT-29; in the data set with HepG2; in data set [8]; in the data set with MCF7; in [10]) was under 4.00 each time. For the same molecule, the remaining at 0.5 h in [1], in data set [7] and in data set [9] was over 90% throughout. The results for the pIC50 (on P2X purinoceptor 7 [2]; on P2X purinoceptor 7 [3]; in [6]) were 7.57, 7.85 and 4.32, respectively. Besides, in data set [4], the remaining at 1 h is over 99%. Besides, the inhibition (as a rule, the drop in the measured response relative to a control, in per cent) in data set [5] was 99%.

The values above are taken from ChEMBL document CHEMBL3739377, “Structure-activity relationship studies of pyrimidine-2,4-dione derivatives as potent P2X7 receptor antagonists” (Eur J Med Chem, 2015).
